Experimental data published in patent publication US6333338A, “Bispiperidines as antithrombotic agents” (Laboratoire L. Lafon, priority 1998, dated 2001).
Structures can show the parent of a compound that is named as a salt. Where two headings read alike, the source gives them in different places.

Legend:
[1] = system: guinea pig platelets; experiment: In vitro inhibition of collagen-induced platelet aggregation, guinea pig platelets (PRP); assay type: cell-based, guinea pig (male Dunkin-Hartley); conditions: Cavia porcellus, Platelet, 0.05 h, collagen 1 μg/ml, 3 minutes of contact at 37° C.
Description: (§1) A study of the inhibitory activity of the compounds of formula I on platelet aggregation was carried out in vitro, i.e. by direct contact of solutions of variable concentrations of the compounds with platelets freshly separated from a sample of total blood, taken under standardized conditions, from laboratory animals (guinea pigs) and from healthy human subjects who have not received any substances or drugs that might interfere with blood clotting. The anti-platelet-aggregating activity was also studied ex vivo/vitro, i.e. after administration of the substances claimed to guinea pigs to measure the intensity and duration of the anti-aggregating action induced by the fraction of the test product absorbed and circulating in the blood.
Blood is taken by intracardiac puncture from male Dunkin-Hartley guinea pigs (weighing about 330 g), at a rate of 4.5 ml per 0.5 ml of trisodium citrate (concentration of the aqueous solution: 1.55%) in order to prevent all trace of clotting. The platelet-rich plasma (PRP) is obtained by centrifuging the tubes of total blood for 15 minutes at 150 g.
The PRPs are collected as "pools". The platelets contained in these pools are counted using a Coulter ZM haematology automatic device: if necessary, a dilution is carried out in order for the platelet concentration in the plasma to be between 200,000 and 400,000 platelets/mm^3. Simultaneously, other samples of these pools serve to prepare the platelet-poor plasma (PPP) by centrifugation at 1500 g for 15 minutes.
The kinetic study of the platelet aggregation is carried out by adding a collagen solution (1 μg/ml) to a volume of PRP, using a Chrono-log Corporation aggregometer (490-D1 or 560 VS) which uses an optical detection of the appearance of the thrombus.
The measurements of the aggregation inhibition are carried out after 3 minutes of contact at 37° C. with agitation.

[2] = system: guinea pig platelets; experiment: Ex vivo/vitro inhibition of platelet aggregation after administration via the gastric route in guinea pigs; parameters: species or system guinea pig (Dunkin-Hartley); conditions: Cavia porcellus, Platelet, fasted guinea pigs
Description: as §1, with “blood. Evaluation of the anti-platelet-aggregating activity of the compounds is carried out in the same guinea pigs as those mentioned above (Dunkin-Hartley strain). […] The allocation of the treatments to the animals is random. The blood is taken and then treated under the same conditions as those described above for the in vitro studies. The results of the inhibition of the platelet aggregation obtained for each test concentration make it possible to calculate the IC50 concentration of each test product and the kinetics of the inhibitory effect and its duration of action.” for “blood.”

[3] = system: human platelets; experiment: In vitro inhibition of collagen-induced platelet aggregation, human platelets (PRP); assay type: cell-based; conditions: 0.05 h, collagen 5 μg/ml, 3 minutes of contact at 37° C., read-out: IC50 (M) in vitro, Man
Description: as §1
Venous blood is taken from a group of ten healthy human subjects of the same age, by puncture into a vein of the fold of the elbow and is collected in a glass tube containing aqueous 0.129 M sodium citrate solution (1 volume of citrate solution per 9 volumes of blood). Each tube is then centrifuged a first time at 20° C. and 100 g for 15 minutes in order to obtain the platelet-rich plasma (PRP); after removing this PRP, the tube is again centrifuged at 2000 g for 15 minutes in order this time to remove the platelet-poor plasma (PPP).
For each identified sample of PRP, the platelets are counted using a Coulter ZM counter. Each sample is then used to study the variation in inhibition of the platelet aggregation triggered by the addition of a Chromo-par Reagent collagen glucose solution from Coultronics (used at a concentration of 5 μg/ml) as a function of the addition of increasing concentrations of each compound in a range covering the interval 10^-8 M→10^-5 M, (example of concentrations: 10^-8 M, […], 6×10^-6 M, 4×10^-6 M, 2×10^-6 M, 10^-6 M, […], 10^-5 M). Beforehand, for each compound, an aqueous 10^-3 M solution is prepared. A control test intended to check the possible effect of the solvents (reference value) on the platelet aggregation is introduced into each measurement series, and is measured after 3 minutes of contact at 37° C. with agitation.
From the percentages of inhibition of the platelet aggregation measured for each concentration of each compound, the 50% inhibitory concentration (IC50) is calculated.

[4] = 1 h before blood sampling, read-out: % of g.r. inhibition guinea pig ex vivo, d = 10 mg/kg, 1 h
[5] = 2 h before blood sampling, read-out: % of g.r. inhibition guinea pig ex vivo, d = 10 mg/kg, 2 h

Row | Compound | IC50 [1] | inhibition at 10 mg/kg [2, 4] | inhibition at 10 mg/kg [2, 5] | inhibition at 150 mg/kg ([2]; 1 h before blood sampling, read-out: % of g.r. inhibition guinea pig ex vivo, d = 150 mg/kg, 1 h) | inhibition at 150 mg/kg ([2]; 2 h before blood sampling, read-out: % of g.r. inhibition guinea pig ex vivo, d = 150 mg/kg, 2 h) | IC50 [3]
1 | O=C(CNC(=O)C(CCC1CCNCC1)CCC1CCNCC1)NC[C@H](NS(=O)(=O)c1ccc2c(c1)OCO2)C(=O)O [Example 57, 2-[(1,3-Benzodioxol-5-ylsulphonyl)amino]-3-{[2-({4-(4-piperidyl)-2-[2-(4-piperidyl)ethyl]butanoyl}amino)acetyl]amino}propanoic Acid Dihydrochloride] | 830 nM | -38% | -24% |  |  | 
2 | CS(=O)(=O)c1ccc(S(=O)(=O)NC(CNC(=O)CNC(=O)C(CCC2CCNCC2)CCC2CCNCC2)C(=O)O)cc1 (centres unmarked) [Example 32, 2-({[4-(Methylsulphonyl)phenyl]sulphonyl}amino)-3-{[2-({4-(4-piperidyl)-2-[2-(4-piperidyl)ethyl]butanoyl}amino)acetyl]amino}propanoic Acid Dihydrochloride] | 12000 nM | -8% | -8% |  |  | 
3 | Cc1ccc(S(=O)(=O)NC(CNC(=O)CNC(=O)C(CCC2CCNCC2)CCC2CCNCC2)C(=O)O)cc1 (centres unmarked) [Example 39, 2-{[(4-Methylphenyl)sulphonyl]amino}-3-{[2-({4-(4-piperidyl)-2-[2-(4-piperidyl)ethyl]butanoyl}amino)acetyl]amino}propanoic Acid Dihydrochloride] | 250 nM | -32% | -10% |  |  | 
4 | O=C(CNC(=O)C(CCC1CCNCC1)CCC1CCNCC1)NCC(NS(=O)(=O)c1ccc2c(c1)CCC2)C(=O)O (centres unmarked) [Example 70, 2-[(2,3-Dihydro-1H-inden-5-ylsulphonyl)amino]-3-{[2-({4-(4-piperidyl)-2-[2-(4-piperidyl)ethyl]butanoyl}amino)acetyl]amino}propanoic Acid Dihydrochloride] | 400 nM | -32% | -34% |  |  | 
5 | COc1ccc(C(CC(=O)O)NC(=O)CNC(=O)C(CCC2CCNCC2)CCC2CCNCC2)cc1 (centres unmarked) [Example 7, 3-(4-Methoxyphenyl)-3-{[2-({4-(4-piperidyl)-2-[2-(4-piperidyl)ethyl]butanoyl}amino)acetyl]amino}propanoic Acid Dihydrochloride] | 10000 nM |  |  | -39% | 0% | 
6 | O=C(CNC(=O)C(CCC1CCNCC1)CCC1CCNCC1)NC[C@H](NS(=O)(=O)c1ccc2ccccc2c1)C(=O)O [Example 27, (2S)-2-[(2-Naphthylsulphonyl)amino]-3-{[2-({4-(4-piperidyl)-2-[2-(4-piperidyl)ethyl]butanoyl}amino)acetyl]amino}propanoic Acid Dihydrochloride] | 19 nM |  |  |  |  | 4.4e-08 M
7 | O=C(CNC(=O)C(CCC1CCNCC1)CCC1CCNCC1)NCC(NS(=O)(=O)c1ccc2c(c1)CCO2)C(=O)O (centres unmarked) [Example 64, 2-[(2,3-Dihydro-1-benzofuran-5-ylsulphonyl)amino]-3-{[2-({4-(4-piperidyl)-2-[2-(4-piperidyl)ethyl]butanoyl}amino)acetyl]amino}propanoic Acid Dihydrochloride] | 370 nM | -65% | -5% |  |  | 
8 | O=C(CNC(=O)C(CCC1CCNCC1)CCC1CCNCC1)NCC(NS(=O)(=O)/C=C/c1ccccc1)C(=O)O (centres unmarked) [Example 42, 2-({[(E)-2-Phenylethenyl]sulphonyl}amino)-3-{[2-({4-(4-piperidyl)-2-[2-(4-piperidyl)ethyl]butanoyl}amino)acetyl]amino}propanoic Acid Dihydrochloride] | 420 nM | -14% | -26% |  |  | 
9 | O=C(CNC(=O)C(CCC1CCNCC1)CCC1CCNCC1)NCC(NS(=O)(=O)Cc1ccccc1)C(=O)O (centres unmarked) [Example 41, 2-[(Benzylsulphonyl)amino]-3-{[2-({4-(4-piperidyl)-2-[2-(4-piperidyl)ethyl]butanoyl}amino)acetyl]amino}propanoic Acid Dihydrochloride] | 8600 nM | 13% | 1% |  |  | 
10 | O=C(CNC(=O)C(CCC1CCNCC1)CCC1CCNCC1)NCC(NS(=O)(=O)c1ccccc1-c1cccs1)C(=O)O (centres unmarked) [Example 66, 2-({[2-(2-Thienyl)phenyl]sulphonyl}amino) 3-{[2-({4-(4-piperidyl)-2-[2-(4-piperidyl)ethyl]butanoyl}amino)acetyl]amino}propanoic Acid Dihydrochloride] | 350 nM | -18% | 0% |  |  | 
11 | O=C(CNC(=O)C(CCC1CCNCC1)CCC1CCNCC1)NCC(NS(=O)(=O)c1cc2ccccc2o1)C(=O)O (centres unmarked) [Example 68, 2-[(1-Benzofuran-2-ylsulphonyl)amino]-3-{[2-({4-(4-piperidyl)-2-[2-(4-piperidyl)ethyl]butanoyl}amino)acetyl]amino}propanoic Acid Dihydrochloride] | 180 nM | -72% | -71% |  |  | 
12 | Cc1nc(C)c(S(=O)(=O)NC(CNC(=O)CNC(=O)C(CCC2CCNCC2)CCC2CCNCC2)C(=O)O)s1 (centres unmarked) [Example 54, 2-{[(2,4-Dimethyl-1,3-thiazol-5-yl)sulphonyl]amino}-3-{[2-({4-(4-piperidyl)-2-[2-(4-piperidyl)ethyl]butanoyl}amino)acetyl]amino}propanoic Acid Dihydrochloride] | 1300 nM | -40% | -15% |  |  | 
13 | O=C(CNC(=O)C(CCC1CCNCC1)CCC1CCNCC1)NC[C@H](NS(=O)(=O)c1ccc(-c2cccs2)cc1)C(=O)O [Example 65, 2-({[4-(2-Thienyl)phenyl]sulphonyl}amino) 3-{[2-({4-(4-piperidyl)-2-[2-(4-piperidyl)ethyl]butanoyl}amino)acetyl]amino}propanoic Acid Dihydrochloride] | 200 nM | -65% | -12% |  |  | 
14 | Cc1cc(S(=O)(=O)NC(CNC(=O)CNC(=O)C(CCC2CCNCC2)CCC2CCNCC2)C(=O)O)c(C)o1 (centres unmarked) [Example 60, 2-{[(2,5-Dimethyl-3-furyl)sulphonyl]amino}-3-{[2-({4-(4-piperidyl)-2-[2-(4-piperidyl)ethyl]butanoyl}amino)acetyl]amino}propanoic Acid Dihydrochloride] | 660 nM | -53% | -32% |  |  | 
15 | Cc1noc(C)c1S(=O)(=O)NC(CNC(=O)CNC(=O)C(CCC1CCNCC1)CCC1CCNCC1)C(=O)O (centres unmarked) [Example 48, 2-{[(3,5-Dimethyl-4-isoxazolyl)sulphonyl]amino}-3-{[2-({4-(4-piperidyl)-2-[2-(4-piperidyl)ethyl]butanoyl}amino)acetyl]amino}propanoic Acid Dihydrochloride] | 420 nM | -61% | -15% |  |  | 
